# Results published in patent US8492371B2, “Compounds as cannabinoid receptor ligands” (priority 2009, dated 2013).
# Read-outs that look alike come from different tables or passages of the source.
# Experiments:
# human CB2 receptors = biological target: T1, human CB2 receptors (Homo sapiens, UniProt P34972); test: Human CB2 radioligand binding assay ([3H]CP-55,940 competition)
# T1 construct: expressed in transfected cells; host or cells: HEK293
# Protocol: The CB1 and CB2 radioligand binding assays described herein are utilized to determine the selectivity of compounds of the present invention for binding to CB2 relative to CB1 receptors.
# (§1) HEK293 cells stably expressing human CB2 receptors were grown until a confluent monolayer was formed. Briefly, the cells were harvested and homogenized in TE buffer (50 mM Tris-HCl, 1 mM MgCl2, and 1 mM EDTA) using a polytron for 2×10 second bursts in the presence of protease inhibitors, followed by centrifugation at 45,000×g for 20 minutes. The final membrane pellet was re-homogenized in storage buffer (50 mM Tris-HCl, 1 mM MgCl2, and 1 mM EDTA and 10% sucrose) and frozen at −78° C. until used. Saturation binding reactions were initiated by the addition of membrane preparation (protein concentration of 5 μg/well for human CB2) into wells of a deep well plate containing ([^3H]CP-55,940 (120 Ci/mmol, a nonselective CB agonist commercially available from Tocris) in assay buffer (50 mM Tris, 2.5 mM EDTA, 5 mM MgCl2, and 0.5 mg/mL fatty acid free BSA, pH 7.4). After 90 min incubation at 30° C., binding reaction was terminated by the addition of 300 μL/well of cold assay buffer followed by rapid vacuum filtration through a UniFilter-96 GF/C filter plates (pre-soaked in 1 mg/mL BSA for 2 hours). The bound activity was counted in a TopCount using Microscint-20. Saturation experiments were conducted with twelve concentrations of [^3H]CP-55,940 ranging from 0.01 to 8 nM. Competition experiments were conducted with 0.5 nM [^3H]CP-55,940 and five concentrations of displacing ligands selected from the range of 0.01 nM to 10 μM. The addition of 10 μM unlabeled CP-55,940 (Tocris, Ellisville, Mo.) was used to assess nonspecific binding.
# rat CB2 receptors = biological target: T2, rat CB2 receptors (Rattus norvegicus, UniProt Q9QZN9); test: Rat CB2 radioligand binding assay ([3H]CP-55,940 competition)
# T2 construct: expressed in transfected cells; host or cells: HEK293
# T2 sequence (Q9QZN9 1-360): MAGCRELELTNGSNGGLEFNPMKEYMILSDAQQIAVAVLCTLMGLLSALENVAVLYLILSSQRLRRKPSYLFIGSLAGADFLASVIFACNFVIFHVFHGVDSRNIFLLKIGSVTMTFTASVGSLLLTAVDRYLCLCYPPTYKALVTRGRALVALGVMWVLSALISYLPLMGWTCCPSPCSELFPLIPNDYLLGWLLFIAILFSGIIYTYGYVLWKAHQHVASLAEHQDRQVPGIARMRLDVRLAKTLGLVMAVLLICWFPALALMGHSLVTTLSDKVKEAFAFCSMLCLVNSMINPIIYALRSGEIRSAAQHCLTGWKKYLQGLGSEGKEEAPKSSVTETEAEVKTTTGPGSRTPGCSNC
# Protocol: as §1, with “expressing rat” for “expressing human”, “of 20” for “of 5”, “for rat” for “for human”, “containing [^3H]CP-55,940” for “containing ([^3H]CP-55,940”, “After 45” for “After 90”, “[…]” for “10 μM.”
# T1 sequence (P34972 whole entry): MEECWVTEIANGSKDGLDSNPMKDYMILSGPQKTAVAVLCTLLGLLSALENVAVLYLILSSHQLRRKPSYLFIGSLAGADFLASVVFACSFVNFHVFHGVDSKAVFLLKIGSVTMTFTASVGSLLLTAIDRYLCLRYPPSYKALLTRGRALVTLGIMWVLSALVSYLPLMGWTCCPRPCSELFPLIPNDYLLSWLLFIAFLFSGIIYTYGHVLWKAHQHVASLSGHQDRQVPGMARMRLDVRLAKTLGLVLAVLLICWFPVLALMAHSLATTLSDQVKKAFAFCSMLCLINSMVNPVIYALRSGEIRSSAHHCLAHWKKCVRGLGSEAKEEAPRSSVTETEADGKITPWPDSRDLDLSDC
SMILES,Ki (human CB2 receptors) [nM],Ki (rat CB2 receptors) [nM],"Ki (human CB2 receptors; HEK293 membranes, 0.5 nM [3H]CP-55,940, read-out: human CB2 Ki) [nM]","Ki (rat CB2 receptors; HEK293 membranes, 0.5 nM [3H]CP-55,940, read-out: rat CB2 Ki) [nM]"
"Cn1c(C(C)(C)C)c/c(=N\C(=O)c2cc(C(F)(F)F)ccc2OCC(F)(F)F)n1C[C@H]1CCCO1 [Example 21, N-{(3E)-5-tert-butyl-1-methyl-2-[(2R)-tetrahydrofuran-2-ylmethyl]-1,2-dihydro-3H-pyrazol-3-ylidene}-2-(2,2,2-trifluoroethoxy)-5-(trifluoromethyl)benzamide]",63,22,–,–
"Cn1c(C(C)(C)C)c/c(=N\C(=O)c2cc(C(F)(F)F)ccc2OCCF)n1C[C@H]1CCCO1 [Example 22, N-{(3E)-5-tert-butyl-1-methyl-2-[(2R)-tetrahydrofuran-2-ylmethyl]-1,2-dihydro-3H-pyrazol-3-ylidene}-2-(2-fluoroethoxy)-5-(trifluoromethyl)benzamide]",24,10,–,–
"COCCOc1ccc(C(F)(F)F)cc1C(=O)/N=c1\cc(C(C)(C)C)n(C)n1C[C@H]1CCCO1 [Example 23, N-{(3E)-5-tert-butyl-1-methyl-2-[(2R)-tetrahydrofuran-2-ylmethyl]-1,2-dihydro-3H-pyrazol-3-ylidene}-2-(2-methoxyethoxy)-5-(trifluoromethyl)benzamide]",30,19,–,–
"Cn1c(C(C)(C)C)c/c(=N\C(=O)c2cc(C(F)(F)F)ccc2O)n1C[C@H]1CCCO1 [Example 24, N-{(3E)-5-tert-butyl-1-methyl-2-[(2R)-tetrahydrofuran-2-ylmethyl]-1,2-dihydro-3H-pyrazol-3-ylidene}-2-hydroxy-5-(trifluoromethyl)benzamide]",–,29,260,–
"Cn1c(C(C)(C)C)c/c(=N\C(=O)c2cc(C(F)(F)F)ccc2OC(C)(C)C)n1C[C@H]1CCCO1 [Example 25, 2-tert-butoxy-N-{(3E)-5-tert-butyl-1-methyl-2-[(2R)-tetrahydrofuran-2-ylmethyl]-1,2-dihydro-3H-pyrazol-3-ylidene}-5-(trifluoromethyl)benzamide]",101,40,–,–
"CO[C@@H](C)COc1ccc(C(F)(F)F)cc1C(=O)/N=c1\cc(C(C)(C)C)n(C)n1C[C@H]1CCCO1 [Example 28, N-{(3E)-5-tert-butyl-1-methyl-2-[(2R)-tetrahydrofuran-2-ylmethyl]-1,2-dihydro-3H-pyrazol-3-ylidene}-2-{[(2S)-2-methoxypropyl]oxy}-5-(trifluoromethyl)benzamide]",101,44,–,–
"CCOCCCOc1ccc(C(F)(F)F)cc1C(=O)/N=c1\cc(C(C)(C)C)n(C)n1C[C@H]1CCCO1 [Example 29, N-{(3E)-5-tert-butyl-1-methyl-2-[(2R)-tetrahydrofuran-2-ylmethyl]-1,2-dihydro-3H-pyrazol-3-ylidene}-2-(3-ethoxypropoxy)-5-(trifluoromethyl)benzamide]",4.8,14,–,–
"COCCCOc1ccc(C(F)(F)F)cc1C(=O)/N=c1\cc(C(C)(C)C)n(C)n1C[C@H]1CCCO1 [Example 30, N-{(3E)-5-tert-butyl-1-methyl-2-[(2R)-tetrahydrofuran-2-ylmethyl]-1,2-dihydro-3H-pyrazol-3-ylidene}-2-(3-methoxypropoxy)-5-(trifluoromethyl)benzamide]",3.8,11,–,–
"CCOCCOc1ccc(C(F)(F)F)cc1C(=O)/N=c1\cc(C(C)(C)C)n(C)n1C[C@H]1CCCO1 [Example 31, N-{(3E)-5-tert-butyl-1-methyl-2-[(2R)-tetrahydrofuran-2-ylmethyl]-1,2-dihydro-3H-pyrazol-3-ylidene}-2-(2-ethoxyethoxy)-5-(trifluoromethyl)benzamide]",11,6.2,–,–
"COc1ccc(C(F)(F)F)cc1C(=O)/N=c1\c2c(n(C)n1C[C@H]1CCCO1)CCC2 [Example 32, 2-methoxy-N-[(3E)-1-methyl-2-[(2R)-tetrahydrofuran-2-ylmethyl]-1,4,5,6-tetrahydrocyclopenta[c]pyrazol-3(2H)-ylidene]-5-(trifluoromethyl)benzamide]",261,–,–,114
